By EC50 is commonly meant the concentration needed to bring the measured effect to its halfway point. Low readings indicate greater potency, high ones weaker potency.

Results on two compounds are retold here after publication PMC2527638 (Toxicological Sciences, 2008).

One assay addresses T1, ERα (Homo sapiens, UniProt P03372).
T1 sequence (P03372 1-595): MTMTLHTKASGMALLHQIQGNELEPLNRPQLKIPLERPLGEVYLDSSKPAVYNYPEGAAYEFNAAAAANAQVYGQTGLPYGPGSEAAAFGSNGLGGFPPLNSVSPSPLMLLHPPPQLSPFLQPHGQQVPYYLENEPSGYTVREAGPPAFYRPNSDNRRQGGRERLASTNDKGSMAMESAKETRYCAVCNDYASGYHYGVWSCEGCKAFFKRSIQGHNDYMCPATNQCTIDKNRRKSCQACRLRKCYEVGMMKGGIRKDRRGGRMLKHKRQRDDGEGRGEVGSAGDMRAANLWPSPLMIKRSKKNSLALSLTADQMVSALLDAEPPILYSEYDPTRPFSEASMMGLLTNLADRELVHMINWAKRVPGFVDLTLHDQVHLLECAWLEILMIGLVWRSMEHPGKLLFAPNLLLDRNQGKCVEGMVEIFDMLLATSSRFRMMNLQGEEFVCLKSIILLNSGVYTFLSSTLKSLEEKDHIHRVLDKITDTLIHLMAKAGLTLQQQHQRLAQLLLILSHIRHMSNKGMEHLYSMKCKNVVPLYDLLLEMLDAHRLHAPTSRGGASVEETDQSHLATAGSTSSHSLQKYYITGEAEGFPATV
The experiment in a line: ERα-specific U2OS reporter gene assay. Type of assay: cell-based.

A further assay concerns the target ERβ (Homo sapiens, UniProt Q92731). The assay can be described thus: ERβ-specific U2OS reporter gene assay. Type of assay: cell-based.
The test system of a further assay is FLAG-ERβ. Type of assay: cell-based, human. Conditions: in the presence of 1000 ng tetracycline/ml, 24 h.

ERβ, sequence (Q92731 whole entry): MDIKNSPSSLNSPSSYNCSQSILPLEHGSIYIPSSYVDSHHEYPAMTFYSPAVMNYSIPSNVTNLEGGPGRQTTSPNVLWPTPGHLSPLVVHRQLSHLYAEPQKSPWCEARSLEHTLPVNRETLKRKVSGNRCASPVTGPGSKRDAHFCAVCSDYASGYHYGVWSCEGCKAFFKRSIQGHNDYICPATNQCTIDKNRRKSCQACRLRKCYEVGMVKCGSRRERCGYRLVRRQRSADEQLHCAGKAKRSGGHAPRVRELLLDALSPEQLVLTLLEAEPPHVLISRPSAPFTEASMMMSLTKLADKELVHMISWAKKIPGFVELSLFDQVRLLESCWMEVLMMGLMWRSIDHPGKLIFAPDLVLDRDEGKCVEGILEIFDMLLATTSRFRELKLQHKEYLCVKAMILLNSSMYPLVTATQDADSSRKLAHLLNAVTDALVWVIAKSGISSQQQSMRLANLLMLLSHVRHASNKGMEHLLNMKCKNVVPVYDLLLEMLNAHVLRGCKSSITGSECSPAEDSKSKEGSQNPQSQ

The compound `CCCc1c(-c2ccc(O)cc2)nn(-c2ccc(O)cc2)c1-c1ccc(O)cc1` [PPT, 4,4′,4″-(4-propyl-[1H]pyrazole-1,3,5-triyl) Tris-phenol] displayed an EC50 on ERα of 0.14 nM. Further, the “Transcription of the reporter gene in the ERβ-U2OS-Luc cell line” value at ERβ was “unable to induce any transcription”.

Consider `CN(C)[C@@H]1C(O)=C(C(N)=O)C(=O)[C@@]2(O)C(O)=C3C(=O)c4c(O)cccc4[C@@](C)(O)[C@H]3C[C@@H]12` [tetracycline, Tetracycline], for which the FLAG-ERβ protein expression entry with FLAG-ERβ is “No detectable FLAG-ERβ protein”.
